Experimental findings from patent US7838674B2, “Tetracyclic lactame derivatives” (Novartis AG, priority 2007, dated 2010) are described below.

For this experiment, the target named is human MK2 (Homo sapiens, UniProt P49137). Briefly: MAPKAPK2 kinase assay (TR-FRET, Hsp27 peptide substrate). In general terms: In TR-FRET formats the signal depends on donor and acceptor labels being close together.

Counter-ions that a name gives are not always drawn.

The term IC50 denotes the point on the concentration scale where inhibition reaches its midpoint. A low value points to inhibition by little substance.

Sequence of human MK2 (P49137 whole entry): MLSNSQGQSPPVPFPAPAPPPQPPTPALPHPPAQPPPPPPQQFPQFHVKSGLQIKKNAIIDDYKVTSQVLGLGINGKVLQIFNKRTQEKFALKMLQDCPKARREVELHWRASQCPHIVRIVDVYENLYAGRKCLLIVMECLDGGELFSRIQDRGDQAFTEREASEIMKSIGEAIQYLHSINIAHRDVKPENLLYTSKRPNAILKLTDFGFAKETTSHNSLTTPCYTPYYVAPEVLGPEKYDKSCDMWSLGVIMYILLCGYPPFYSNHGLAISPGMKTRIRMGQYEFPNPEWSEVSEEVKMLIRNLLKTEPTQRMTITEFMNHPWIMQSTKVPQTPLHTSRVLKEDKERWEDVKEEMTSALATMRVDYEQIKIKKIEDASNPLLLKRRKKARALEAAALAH

As for `O=C1NC2(CNC2)Cc2[nH]c3c(c21)CCc1cnc(-c2cccc(F)c2)cc1-3` [Example 24, 2-(3-Amino-azetidin-3-ylmethyl)-8-(3-fluoro-phenyl)-4,5-dihydro-1H-pyrrolo[2,3-f]isoquinoline-3-carboxylic acid lactam hydrochloride], the IC50 turned out to be 0.013 µM.

Molecule `O=C1NC2(CC2)Cc2[nH]c3c(c21)CCc1cnc(-c2ccc(Oc4ccc(F)cc4F)nc2)cc1-3` [Example 95, 2-(1-Amino-cyclopropylmethyl)-8-[6-(2,4-difluoro-phenoxy)-pyridin-3-yl]-4,5-dihydro-1H-pyrrolo[2,3-f]isoquinoline-3-carboxylic acid lactam] yielded a half-maximal inhibitory concentration (IC50) of 0.1 µM.

`O=C1NC2(CC2)Cn2nc3c(c21)CCc1cnc(/C=C/c2ccccc2)cc1-3` [Example 10, 2-(1-Amino-cyclopropylmethyl)-8-((E)-styryl)-4,5-dihydro-2H-1,2,7-triaza-cyclopenta[a]naphthalene-3-carboxylic acid lactame]: the IC50 is more than 0.01 µM.

`O=C1NCC2(CC2)c2[nH]c3c(c21)CCc1cnc(/C=C/c2ccccc2)cc1-3` [Example 2, 2-(1-Aminomethyl-cyclopropyl)-8-((E)-styryl)-4,5-dihydro-1H-pyrrolo[2,3-f]isoquinoline-3-carboxylic acid lactame] had a half-inhibitory concentration (IC50) of 0.021 µM.

In turn, `CN(C)CCOc1ccc(-c2cc3c(cn2)CCc2c-3[nH]c3c2C(=O)NCC32CC2)cc1C#N` [Example 308, 2-(2-Dimethylamino-ethoxy)-5-(7-oxo-10-spirocyclopropyl-6,7,8,9,10,11-hexahydro-5H-3,8,11-triaza-benzo[a]fluoren-2-yl)-benzonitrile] gave a concentration for half-maximal inhibition (IC50) of 0.015 µM.

As to `O=C1NC2(CCC2)Cc2[nH]c3c(c21)CCc1cnc(-c2ccc(OC4CCOCC4)nc2)cc1-3` [Example 108, 2-(1-Amino-cyclobutylmethyl)-8-[6-(tetrahydro-pyran-4-yloxy)-pyridin-3-yl]-4,5-dihydro-1H-pyrrolo[2,3-f]isoquinoline-3-carboxylic acid lactam], 0.049 µM corresponded to half-maximal inhibition (IC50).

In turn, `O=C1NC2(CC2)Cc2[nH]c3c(c21)CCc1cnc(-c2cncc(OC4CCOCC4)c2)cc1-3` [Example 94, 2-(1-Amino-cyclopropylmethyl)-8-[5-(tetrahydro-pyran-4-yloxy)-pyridin-3-yl]-4,5-dihydro-1H-pyrrolo[2,3-f]isoquinoline-3-carboxylic acid lactam] gave an IC50 of 0.053 µM.

Take `O=C1NC2(CCC2)Cc2[nH]c3c(c21)CCc1cnc(-c2ccc(CN4CCOCC4)c(F)c2)cc1-3` [Example 110, 2-(1-Amino-cyclobutylmethyl)-8-(3-fluoro-4-morpholin-4-ylmethyl-phenyl)-4,5-dihydro-1H-pyrrolo[2,3-f]isoquinoline-3-carboxylic acid lactam]: the IC50 is 0.084 µM.

In turn, `COCCOc1ccc(-c2cc3c(cn2)CCc2c-3[nH]c3c2C(=O)NCC32CC2)cc1C#N` [Example 309, 2-(2-Methoxy-ethoxy)-5-(7-oxo-10-spirocyclopropyl-6,7,8,9,10,11-hexahydro-5H-3,8,11-triaza-benzo[a]fluoren-2-yl)-benzonitrile] yielded an IC50 of 0.02 µM.

In the case of `Cc1cncc(-c2cc3c(cn2)CCc2c-3[nH]c3c2C(=O)NC2(CC2)C3)c1` [Example 84, 2-(1-Amino-cyclopropylmethyl)-8-(5-methyl-pyridin-3-yl)-4,5-dihydro-1H-pyrrolo[2,3-f]isoquinoline-3-carboxylic acid lactam], inhibition was half-maximal at 0.039 µM (IC50).

Take `Cn1c2c(c3c1-c1nc(-c4cccc(F)c4)ncc1CC3)C(=O)NC1(CNC1)C2` [Example 27, 2-(3-Amino-azetidin-3-ylmethyl)-8-(3-fluoro-phenyl)-1-methyl-4,5-dihydro-1H-1,7,9-triaza-cyclopenta[a]naphthalene-3-carboxylic acid lactam hydrochloride]: the half-maximal inhibitory concentration (IC50) amounted to 0.043 µM.
